Tests used:
[1] = tested on: arrhythmia induced by an intravenous administration of calcium chloride; test: Antiarrhythmic activity on a model of arrhythmia induced by intravenous calcium chloride (antagonism to calcium) in mice; format: in vivo; details: white mice, 20-40 minutes before
Method: The specific (antiarrhythmic) effect and acute toxicity were studied.
The antiarrhythmic activity of the compounds according to the present invention was studied on a model of arrhythmia induced by an intravenous administration of calcium chloride. In experiments on white mice of both sexes with a mass of 18-25 g narcotized by urethane (1,200 mg/kg intraperitoneally) ECG in the second standard lead was recorded. A 2% solution of calcium chloride was introduced into the tail vein at a constant rate (0.01 ml for 2 sec). The dose of calcium chloride causing arrhythmia and the dose causing the heart arrest were determined. In the test groups the test compounds were administered intraperitoneally 20-40 minutes before the beginning of the experiment.

in vivo = details: mouse, in vivo, ip
Method: (§1) The study of the effect provided by the compounds according to the present invention on the cardio-vascular system was carried out in experiments on white mice. The specific (antiarrhythmic) effect and acute toxicity were studied.
(§2) The acute toxicity of the compounds according to the present invention was determined in experiments on white mice with a mass of 20-25 g. The test compounds were administered intraperitoneally in the form of aqueous solutions or suspensions in Twin-80. Observation over the test animals was effected for 10 days.

white mice = test: in vivo
Method: as §1, §2

Structure (SMILES) | Dose of calcium chloride causing arrythmia in animals under experiment ([1]; intraperitoneal dose 5 mg/kg) | Dose of calcium chloride causing death in animals under experiment ([1]; intraperitoneal dose 5 mg/kg) | Dose of calcium chloride causing arrythmia in animals under experiment ([1]; intraperitoneal dose 15 mg/kg) | Dose of calcium chloride causing death in animals under experiment ([1]; intraperitoneal dose 15 mg/kg) | LD50 at 240 h (in vivo) | Relative toxisity to quinidine (white mice; mouse, in vivo, ip, 14400 min) | Dose of calcium chloride causing arrythmia in animals under experiment ([1]; intraperitoneal dose 25 mg/kg) | Dose of calcium chloride causing death in animals under experiment ([1]; intraperitoneal dose 25 mg/kg) | Relative toxisity to quinidine (white mice; white mice, intraperitoneal, relative to quinidine)
COC(=O)CCN(C(N)=O)N(C)C [I-1, 3-(2,2-Dimethyl-1-carbamoylhydrazino)-methylpropionate] | 118,5 mg/kg | 149,0 mg/kg | 124,4 mg/kg | 138,3 mg/kg | 2080 mg/kg | 13,3 |  |  | 
CNC(=O)N(CCC(=O)OC)N(C)C [I-2, 3-(2,2-Dimethyl-1-methylcarbamoylhydrazino)-methylpropionate] | 112,0 mg/kg | 128,5 mg/kg | 124,5 mg/kg | 140,6 mg/kg | 2300 mg/kg | 14,7 |  |  | 
COC(=O)CCN(C(=O)Nc1ccccc1)N(C)C [I-3, 3-(2,2-dimethyl-1-phenylcarbamoylhydrazino)-methylpropionate] | 86,7 mg/kg | 97,0 mg/kg |  |  | 1350 mg/kg | 8,6 | 124,7 mg/kg | 130,0 mg/kg | 
COC(=O)CCN(C(=O)Nc1ccc(NC(=O)N(CCC(=O)OC)N(C)C)cc1)N(C)C [I-4, 3-(2,2-dimethyl-1-p-/2-dimethylamino-2-methylpropionato-2'-yl-ureido-1-yl/anilinocarbanylhydrazino)-methylpropionate] | 86,0 mg/kg | 110,0 mg/kg |  |  | 8000 mg/kg | 51,3 | 103,7 mg/kg | 115,0 mg/kg | 
CNC(=S)N(CCC(=O)OC)N(C)C [I-5, 3-(2,2-dimethyl-1-methylthiocarbamoylhydrazino)methylpropionate] | 87,5 mg/kg | 100,5 mg/kg |  |  | 3950 mg/kg | 25,3 | 127,3 mg/kg | 131,4 mg/kg | 
C=CCNC(=S)N(CCC(=O)OC)N(C)C [I-6, 3-(2,2-dimethyl-1-allylthiocarbamoylhydrazino)methylpropionate] | 97,9 mg/kg | 110,4 mg/kg |  |  | 3200 mg/kg | 20,5 | 100,9 mg/kg | 113,7 mg/kg | 
COC(=O)CCN(C(=S)Nc1ccccc1)N(C)C [I-7, 3-(2,2-dimethyl-1-phenylthiocarbamoylhydrazino)methylpropionate] | 132 mg/kg | 135,6 mg/kg | 107,5 mg/kg | 138,0 mg/kg | 2100 mg/kg | 13,4 | 90,0 mg/kg | 113,0 mg/kg | 
CCOC(=O)CCN(C(=O)NC)N(C)C [I-8, 3-(2,2-dimethyl-1-methylcarbamoylhydrazino)-ethylpropionate] | 99,4 mg/kg | 112,0 mg/kg |  |  | 1870 mg/kg | 11,9 | 123,2 mg/kg | 124,6 mg/kg | 
C=CCNC(=S)N(CCC(=O)OCC)N(C)C [I-9, 3-(2,2-dimethyl-1-allylthiocarbamoylhydrazino)ethylpropionate] | 91,8 mg/kg | 107 mg/kg |  |  | 1780 mg/kg | 11,4 | 104,8 mg/kg | 116,5 mg/kg | 
CCOC(=O)CCN(C(=S)Nc1ccccc1)N(C)C [I-10, 3-(2,2-dimethyl-1-phenylthiocarbamoylhydrazino)ethylpropionate] | 102,0 mg/kg | 108,8 mg/kg | 115,8 mg/kg | 125,7 mg/kg | 1800 mg/kg | 11,5 |  |  | 
COC(=O)C(C)CN(C(N)=O)N(C)C (centres unmarked) [I-11, 3-(2,2-dimethyl-1-carbamoylhydrazino)-2-methyl-methylpropionate] | 100,3 mg/kg | 147 mg/kg | 130,7 mg/kg | 136,3 mg/kg | 1850 mg/kg | 11,8 |  |  | 
CNC(=O)N(CC(C)C(=O)OC)N(C)C (centres unmarked) [I-12, 3-(2,2-dimethyl-1-methylcarbamoylhydrazino)-2-methyl-methylpropionate] | 106,0 mg/kg | 110,0 mg/kg | 128,3 mg/kg | 130,5 mg/kg | 1270 mg/kg | 8,1 |  |  | 
C=CCNC(=S)N(CC(C)C(=O)OC)N(C)C (centres unmarked) [I-13] | 117,3 mg/kg | 136,5 mg/kg | 126,0 mg/kg | 138,0 mg/kg | 1230 mg/kg | 7,8 |  |  | 
COC(=O)C(C)CN(C(=S)Nc1ccccc1)N(C)C (centres unmarked) [I-14] | 96,4 mg/kg | 114,1 mg/kg | 85 mg/kg | 101,0 mg/kg | 1960 mg/kg | 12,5 |  |  | 
CNC(=O)N(CCC(N)=O)N(C)C [I-15, 3-(2,2-dimethyl-1-methylcarbamoylhydrazino)-propionamide] | 97,8 mg/kg | 109 mg/kg | 100,7 mg/kg | 108,5 mg/kg | 3600 mg/kg | 23 |  |  | 
CN(C)N(CCC(N)=O)C(=O)Nc1ccccc1 [I-16, 3-(2,2-dimethylamino-1-phenylcarbamoylhydrazino)propionamide] | 92,0 mg/kg | 115,3 mg/kg | 102,5 mg/kg | 125,0 mg/kg | 925 mg/kg |  |  |  | 5,9
CNC(=S)N(CCC(N)=O)N(C)C [I-17] | 87,5 mg/kg | 138 mg/kg | 102,0 mg/kg | 115 mg/kg | 2850 mg/kg | 18,3 |  |  | 
C=CCNC(=S)N(CCC(N)=O)N(C)C [I-18] | 127 mg/kg | 160,5 mg/kg | 153 mg/kg | 168 mg/kg | 2900 mg/kg | 18,6 |  |  | 
CN(C)N(CCC(N)=O)C(=S)Nc1ccccc1 [I-19, 3-(2,2-dimethyl-1-phenylthiocarbamoylhydrazino)propionamide] | 98,3 mg/kg | 112,0 mg/kg | 110,5 mg/kg | 130,0 mg/kg | 1750 mg/kg | 11,2 |  |  | 
CC(CN(C(=S)Nc1ccccc1)N(C)C)C(N)=O (centres unmarked) [I-20, 3-(2,2-dimethyl-1-phenylthiocarbamoylhydrazino)2-methylpropionamide] | 102 mg/kg | 123 mg/kg | 106,4 mg/kg | 118,6 mg/kg | 1340 mg/kg | 8,6 |  |  | 

Source: patent US4633014A, “Substituted 3-hydrazinopropionates” (priority 1983, dated 1986)
